Source: PMC4770093, “The role of kinetic context in apparent biased agonism at GPCRs” (Nature Communications, 2016)
Several values for one entry are separate records, joined by “and”; a condition that tells them apart may be missing. Identical values can stand only once.

Experiments:
[1] = target: T1, D2LR (Homo sapiens, UniProt P14416); experiment: xCELLigence cellular impedance (CI) assay; format: cell-based; design: expressed in transfected cells; conditions: for Emax: relative to the maximal response of ropinirole
Outline: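 Label-free impedance readout in D2LR-expressing cells: 20,000 cells/well grown 16–20 h, then serum-starved 4 h. Cell index recorded every 15 s for 90 min after ligand addition, normalized to the value at addition, with vehicle subtracted.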

[2] = target: T1, D2LR; experiment: Inhibition of forskolin-induced cAMP production (BRET CAMYEL biosensor); conditions: for EC50: pEC50 cAMP; for Emax: relative to the maximal response of ropinirole; for Inhibition of cAMP production measured using a CAMYEL BRET biosensor, Net BRET: single experiments n = 1, 2, 3
Procedure: Flp-In-CHO cells stably expressing the D2LR were seeded at a density of 2,000,000 cells per 10-cm dish and were transfected the following day using polyethylenimine as the transfection reagent. The cells were transfected with 3 μg CAMYEL, to allow the detection of cAMP levels within the cells. Twenty-four hours after transfection, the cells were plated into 96-well CulturPlates (PerkinElmer) and grown overnight. The cells were equilibrated in Hank's balanced salt solution at 37 °C (or 25 °C when indicated) before starting the experiment. The cells were co-stimulated with the agonists and 10 μM forskolin for the indicated timeframes when the BRET readings were captured. Coelenterazine (Promega) was added at a final concentration of 5 μM at least 3 min before measurement. […] Net BRET was determined by subtraction of the vehicle control co-added with 10 μM forskolin.

[3] = target: T1, D2LR; experiment: β-Arrestin-2 recruitment (BRET); format: cell-based; design: expressed in transfected cells
Procedure: β-Arrestin-2 recruitment. […] To assess β-arrestin-2 recruitment to the D2LR, the cells were transfected with 1 μg Rluc8-tagged D2LR, 4 μg YFP–β-arrestin-2 and 2 μg GRK2. […] The cells were incubated with Coelenterazine (Promega) at a final concentration of 5 μM for 5 min, followed by stimulation with the agonists for an additional 5 min before the BRET readings were captured.

T1 sequence (P14416 whole entry): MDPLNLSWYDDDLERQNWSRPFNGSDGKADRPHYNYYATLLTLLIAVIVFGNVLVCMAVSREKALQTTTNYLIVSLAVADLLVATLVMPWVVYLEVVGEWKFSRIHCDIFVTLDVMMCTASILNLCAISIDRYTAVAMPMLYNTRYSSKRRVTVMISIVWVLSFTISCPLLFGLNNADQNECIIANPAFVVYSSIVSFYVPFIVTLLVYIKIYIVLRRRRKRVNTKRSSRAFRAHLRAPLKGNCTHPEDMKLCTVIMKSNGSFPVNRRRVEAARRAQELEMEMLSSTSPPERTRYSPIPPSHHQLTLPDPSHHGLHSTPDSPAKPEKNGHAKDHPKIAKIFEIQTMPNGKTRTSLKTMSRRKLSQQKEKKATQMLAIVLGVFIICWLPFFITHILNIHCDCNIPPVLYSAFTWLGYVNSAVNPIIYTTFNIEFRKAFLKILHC

With `CCCN(CCC)CCc1cccc2c1CC(=O)N2` [Ropinirole, ropinirole] the “Log(τ/KA) Cellular impedance” value [1] was 8.32 ± 0.05, the “ΔLog(τ/KA) Cellular impedance” value [1] was -0.23 ± 0.06 and the EC50 ([1]; 2 min) was 4.68 nM. For the same compound, the Emax ([1]; 2 min) was 100%, the EC50 ([1]; 5 min) was 5.13 nM and the Emax ([1]; 5 min) was 100%. The EC50 ([1]; 10 min) was 7.94 nM, the Emax ([1]; 10 min) was 100% and the EC50 ([1]; 15 min) was 10.7 nM. For the same compound, the Emax ([1]; 15 min) was 100%, the EC50 ([1]; 30 min) was 17 nM and the Emax ([1]; 30 min) was 100%. The EC50 ([1]; 45 min) was 19.5 nM, the Emax ([1]; 45 min) was 100% and the EC50 ([1]; 60 min) was 24 nM. It also gave an Emax ([1]; 60 min) of 100%, an EC50 ([1]; 75 min) of 28.2 nM and an Emax ([1]; 75 min) of 100%. For the same compound, the EC50 ([1]; 90 min) was 34.7 nM, the Emax ([1]; 90 min) was 100% and the “Log(τ/KA) cAMP” value [2] was 7.67 ± 0.04. The “ΔLog(τ/KA) cAMP” value [2] was -0.39 ± 0.06, the EC50 ([2]; 2 min) was 9.55 nM and the EC50 ([2]; 5 min) was 22.4 nM. The EC50 ([2]; 10 min) was 41.7 nM, the EC50 ([2]; 15 min) was 42.7 nM and the EC50 ([2]; 30 min) was 34.7 nM. For the same compound, the EC50 ([2]; 45 min) was 97.7 nM, the EC50 ([2]; 60 min) was 186 nM and the EC50 ([2]; 75 min) was 107 nM. It also gave an EC50 ([2]; 90 min) of 174 nM, an Emax ([2]; read-out: Emax cAMP, 2 min) of 100% and an Emax ([2]; read-out: Emax cAMP, 5 min) of 100%. For the same compound, the Emax ([2]; read-out: Emax cAMP, 10 min) was 100%, the Emax ([2]; read-out: Emax cAMP, 15 min) was 100% and the Emax ([2]; read-out: Emax cAMP, 30 min) was 100%. It also gave an Emax ([2]; read-out: Emax cAMP, 45 min) of 100%, an Emax ([2]; read-out: Emax cAMP, 60 min) of 100% and an Emax ([2]; read-out: Emax cAMP, 75 min) of 100%. The Emax ([2]; read-out: Emax cAMP, 90 min) was 100%, the “Inhibition of cAMP production measured using a CAMYEL BRET biosensor, Net BRET” value (“Inhibition of cAMP production measured” below) ([2]; time 2.21667 mins) was 0.139 and 0.1472 and 0.1432 and the “Inhibition of cAMP production measured” value ([2]; time 2.58333 mins) was 0.1633 and 0.1578 and 0.1547. For the same compound, the “Inhibition of cAMP production measured” value ([2]; time 2.95 mins) was 0.1708 and 0.1681 and 0.157, the “Inhibition of cAMP production measured” value ([2]; time 3.31667 mins) was 0.1659 and 0.1812 and 0.1714 and the “Inhibition of cAMP production measured” value ([2]; time 3.68333 mins) was 0.1811 and 0.1789 and 0.1805. The “Inhibition of cAMP production measured” value ([2]; time 4.05 mins) was 0.191 and 0.1937 and 0.1853, the “Inhibition of cAMP production measured” value ([2]; time 4.41667 mins) was 0.1979 and 0.1996 and 0.185 and the “Inhibition of cAMP production measured” value ([2]; time 4.78333 mins) was 0.2031 and 0.2011 and 0.1899. The “Inhibition of cAMP production measured” value ([2]; time 5.15 mins) was 0.2133 and 0.1934 and 0.1923, the “Inhibition of cAMP production measured” value ([2]; time 5.51667 mins) was 0.202 and 0.1988 and 0.1873 and the “Inhibition of cAMP production measured” value ([2]; time 5.88333 mins) was 0.214 and 0.1997 and 0.2002. For the same compound, the “Inhibition of cAMP production measured” value ([2]; time 6.25 mins) was 0.2138 and 0.204 and 0.1926, the “Inhibition of cAMP production measured” value ([2]; time 6.61667 mins) was 0.2113 and 0.1972 and 0.1923 and the “Inhibition of cAMP production measured” value ([2]; time 6.98333 mins) was 0.2032 and 0.2012 and 0.1937. For the same compound, the “Inhibition of cAMP production measured” value ([2]; time 7.35 mins) was 0.2141 and 0.1963 and 0.1945, the “Inhibition of cAMP production measured” value ([2]; time 7.71667 mins) was 0.2104 and 0.2011 and 0.1956 and the “Inhibition of cAMP production measured” value ([2]; time 8.08333 mins) was 0.2099 and 0.2149 and 0.1931. The “Inhibition of cAMP production measured” value ([2]; time 8.45 mins) was 0.2126 and 0.2072 and 0.1885, the “Inhibition of cAMP production measured” value ([2]; time 8.81667 mins) was 0.2189 and 0.2083 and 0.199 and the “Inhibition of cAMP production measured” value ([2]; time 9.18333 mins) was 0.2207 and 0.2105 and 0.1943. The “Inhibition of cAMP production measured” value ([2]; time 9.55 mins) was 0.212 and 0.2054 and 0.2079, the “Inhibition of cAMP production measured” value ([2]; time 9.91667 mins) was 0.2149 and 0.2049 and 0.2075 and the “Inhibition of cAMP production measured” value ([2]; time 10.2833 mins) was 0.2152 and 0.2111 and 0.2029. The “Inhibition of cAMP production measured” value ([2]; time 10.65 mins) was 0.2279 and 0.2163 and 0.2038, the “Inhibition of cAMP production measured” value ([2]; time 11.0167 mins) was 0.2157 and 0.2032 and 0.2052 and the “Inhibition of cAMP production measured” value ([2]; time 11.3833 mins) was 0.2205 and 0.2041 and 0.2034. The “Inhibition of cAMP production measured” value ([2]; time 11.75 mins) was 0.2254 and 0.2085 and 0.1983, the “Inhibition of cAMP production measured” value ([2]; time 12.1167 mins) was 0.2217 and 0.2066 and 0.2006 and the “Inhibition of cAMP production measured” value ([2]; time 12.4833 mins) was 0.2324 and 0.2048 and 0.2074. For the same compound, the “Inhibition of cAMP production measured” value ([2]; time 12.85 mins) was 0.2281 and 0.2112 and 0.2008, the “Inhibition of cAMP production measured” value ([2]; time 13.2167 mins) was 0.2271 and 0.2125 and 0.2083 and the “Inhibition of cAMP production measured” value ([2]; time 13.5833 mins) was 0.2211 and 0.208 and 0.2059. For the same compound, the “Inhibition of cAMP production measured” value ([2]; time 13.95 mins) was 0.2209 and 0.2042 and 0.208, the “Inhibition of cAMP production measured” value ([2]; time 14.3167 mins) was 0.2319 and the “Log(τ/KA) β-arrestin2” value [3] was 6.48 ± 0.15. The “ΔLog(τ/KA) β-arrestin2” value [3] was 0.14 ± 0.20.
